From patent publication US20070087021A1, “METHOD OF PROTECTING AGAINST CHRONIC INFECTIONS” (priority 1997, published 2007)

Tests used:
coccidiosis [1] = assay: Paired-barn comparison repeated: vaccine/monensin treatment vs monensin alone; assay type: in vivo, poultry; settings: cockerels
Experimental: (§1) A gel form vaccine was prepared by first adding 200 ml of hot tap water to 5 gm of kappa carrageenan Bengel MB 910 in a container and mixing until the MB 910 had dissolved. To this solution was added 200 ml of a solution containing 500 oocysts per ml of a mixture of Eimeria acervulina, E. maxima and E. tenella and the combined solution was mixed. The solution was then poured into a plastic watering dish and allowed to cool and get at 4° C.
(§2) A paired-barn comparison was conducted between use of a anticoccidial ionophore and the method of the present invention for protecting poultry against coccidiosis. 51,000 birds were divided into two groups. One group was maintained on feed containing 60 mg per kilogram of feed of salinomycin sodium COXISTAC (Pfizer). The second group was administered the vaccine prepared in accordance with Example 1 on Day 1. These birds were maintained on feed with no medication for 10 days. Thereafter, 60 mg per kilogram of salinomycin sodium was utilized in the feed for a further 10 days after which the animals were maintained on non-medicated feed until shipping. A virginiamysin based growth promotant STAFAC (SmithKline Beecham) at a level of 11 mg per kilogram of feed was used as a growth promotant in both groups.
The above example was repeated comparing vaccine/monensin treatment with monensin alone and the results from this are shown in Table 2.

coccidiosis [2] = assay: Paired-barn comparison of anticoccidial ionophore (salinomycin) vs vaccine plus salinomycin for protecting poultry against coccidiosis; assay type: in vivo
Experimental: as §1, §2

[3] = birds, market age 42 days / 52 days

## CC[C@@]1([C@@H]2O[C@@H]([C@H]3O[C@@](O)(CO)[C@H](C)C[C@@H]3C)C[C@@H]2C)CC[C@H]([C@]2(C)CC[C@]3(C[C@H](O)[C@@H](C)[C@@H]([C@@H](C)[C@@H](OC)[C@H](C)C(=O)O)O3)O2)O1 [Monesin, monensin]
Coccidiosis [1]
  EEF (European Efficiency Factor): 2.23
  Feed Conversion Ratio: 2.19
Coccidiosis [1]; average at market (Monesin group: market age 47 days)
  Avg. Weight: 2.44 kg
Coccidiosis [1]; vaccine group: 2 weeks no medication, then 2 weeks monensin in feed
  Livability (%): 94.1%

## CC[C@@H](C(=O)[C@@H](C)[C@@H](O)[C@H](C)[C@@H]1O[C@@H]([C@@H](CC)C(=O)O)CC[C@@H]1C)[C@H]1O[C@]2(C=C[C@@H](O)[C@]3(CC[C@@](C)([C@H]4CC[C@](O)(CC)[C@H](C)O4)O3)O2)[C@H](C)C[C@@H]1C [Salinomycin, salinomycin sodium]
Coccidiosis [2]; [3]
  Avg. Weight: 2.72 kg
  Feed Conversion Ratio: 2.16
Coccidiosis [2]; birds, market age 42 days / 52 days, salinomycin sodium 60 mg per kg feed (vaccine group: 10 days no medication, then 10 days salinomycin)
  Livability (%): 91.8%
Coccidiosis [2]; related to percent livability, average market weight, feed conversion rate and market age
  EEF (European Efficiency Factor): 2.23
